Measurements published in patent publication US9902713B2, “Neuroprotective compounds and use thereof” (BOARD OF REGENTS OF THE UNIVERSITY OF TEXAS SYSTEM, priority 2013, dated 2018).
Entries after “also recorded” stand apart in the source; their conditions may differ.

Assays:
[1] = tested on: dopaminergic neurons within the substantia nigra; experiment: MPTP model of Parkinson's disease, TH+ neurons in SNc; type: in vivo, mice; details: IP, BID; for rescue of TH+ neurons: 10 mg/kg/d; for dose showing significant neuroprotective activity: 21 d after MPTP
Source text: The mouse model of neurogenesis involves protecting newborn hippocampal neurons from premature apoptotic cell death. We also sought to determine if P7C3-S243 could protect mature neurons from cell death. […] In the brain, MPTP is oxidized to 1-methyl-4-phenylpyridinium cation (MPP^+), which is selectively transported into dopaminergic neurons within the SNc.^xh Within these cells, MPP^+ acts as a mitochondrial poison, generating a pathology that resembles that of Parkinsonian patients.^xvii Under our assay conditions, treatment with drug was initiated a full 24 hours after the final dose of MPTP. This dosing regime ensures that any effect of the P7C3 class of compounds can be attributed to neuroprotective activity rather than to simply blocking the uptake or metabolism of MPTP.^xviii Mice were administered drug twice daily for 21 days, after which time they were sacrificed by transcardial perfusion. Fixed brains were sectioned through the SNc at […] intervals. Every fourth section was stained with antibodies specific to tyrosine hydroxylase (TH). The TH enzyme catalyzes the oxidation of L-tyrosine to L-DOPA, which is the first step in the biosynthesis of dopamine. Accordingly, the number of TH+ cells provides a quantification of the neuroprotective efficacy of P7C3 derivatives following MPTP exposure. Importantly, all microscopic analyses were performed blinded to treatment group.
To test efficacy of P7C3-S243 in the MPTP model of Parkinson's disease, mice were administered MPTP (30 mg/k/d) for 5 days. On the 6th day, treatment with drug was initiated at the indicated dose (IP, BID, 21 d). In FIG. 3 upper panel, bars indicate number of tyrosine hydroxylase positive cells detected by immunohistochemical staining of the substantia nigra; error bars indicate SEM; asterisks indicate p<0.01 (*), p<0.001 (**) or p<0.0001 (***) relative to the Veh+MPTP group; number of mice in each group are shown within the bars. In FIG. 3 lower panel, representative immunohistochemical pictures of TH staining in the SNc are shown for 5 mg/kg/d treatment groups; bar=[…]. […] Moreover, the enantiomeric specificity observed in the MPTP model of Parkinson's disease mirrored that observed in the mouse model of neurogenesis. […] In this side-by-side experiment, P7C3-S243 appears at least as effective as P7C3-A20, a compound that has proven efficacy in several animal models of neurodegenerative disease.
MPTP Assay. As previously reported,^5 adult male C57BI/6 mice were individually housed for one week and then injected daily for 5 days with 30 mg/kg/day (i.p.) free base MPTP (Sigma). On day 6, 24 hours after receiving the fifth and final dose of MPTP, daily treatment with compound was initiated. Mice received twice daily doses of each compound (or vehicle) for the following 21 days, after which mice were sacrificed by transcardial perfusion with 4% paraformaldehyde. Brains were dissected, fixed overnight in 4% paraformaldehyde, and cryprotected in sucrose for freezing by standard procedures. […] Images were analyzed with a Nikon Eclipse 90i motorized research microscope with Plan Apo lenses coupled with Metamorph Image Acquisition software (Nikon). TH+ neurons were counted with Image J software (NIH) in every section by 2 blinded investigators and results were averaged and multiplied by the sectioning interval to determine the total number of TH+ neurons per SNc.

[2] = tested on: blast-injured mice; experiment: Barnes maze after blast-mediated TBI; type: in vivo; details: for time in escape quadrant, probe test: treatment immediately after blast-injury, 10 mg/kg/d IP, FIG. 21A
Source text: Barnes maze: The Barnes maze evaluates cognition based on time spent in the escape area. There are 20 holes around the periphery of the round tabletop, one of which contains an escape chamber (shown in red), into which the animal is motivated to seek shelter after being placed on the open tabletop. The escape area is defined as 5 cm around the hole, and time spent in the escape area during the probe test is used to measure hippocampal-dependent memory, which is dependent on visual cue around the table.
To test the neuroprotective efficacy of P7C3-A20 and P7C3-S243, we employed a model of blast-induced TBI in which the blast wave is propagated following rupture of a mylar membrane (Mohan et al., 2013). Briefly, anesthetized mice are placed in an enclosed blast chamber constructed from an air tank partitioned into two sides. A sealed mylar membrane covers a small port between the two halves of the tank. When the pressure is increased in the side without the mouse, the membrane ruptures at ≈22 kilopascal (kPa), generating a blast wave that travels through the mouse's head. The head of the mouse is untethered and located in a padded holder, while the body is shielded from the blast by a metal tube. In all cases, the left side of the head faces the blast wave. As previously reported (Mohan et al., 2013), the intensity of the blast wave in our system is 149.8±2.09 kPa, and the duration of the total pressure (Blast wave+wind gust) is ≈10-15 milliseconds.
The Barnes maze consists of a circular table with holes equally spaced around the perimeter. One of these holes contains an escape cup, such that the mouse can enter the hole and hide in the cup to avoid exposure on the table. Testing in the Barnes maze was initiated 7 days after blast-injury. To begin, mice underwent 4 days of training, during which time they were allowed to find and enter the escape hole, and rest in the protective cup. By the 4th day of training, mice typically learn how to rapidly locate the escape hole, based on visual cues permanently positioned around the table throughout training. After 4 days of training, the cup is removed and the ability of the mouse to remember where the cup was previously located is assessed in the ‘probe test.’ Memory is reflected by measuring the amount of time the mouse spends in the area around where the cup was previously located.
Blast-Mediated Traumatic Brain Injury. Mice were anesthetized with ketamine/xylazine ([…] respectively) and placed in an enclosed blast chamber (50 cm long and 33 cm wide) constructed from an air tank partitioned into two sides. One side was pressurized with a 13 cm opening between the partitions, covered with a Mylar membrane. The unpressurized partition contained a restraint 10 cm from the Mylar membrane into which the mouse was placed. The head was freely moving while a metal tube shielded the body. Compressed air was forced in to the pressurized partition until the Mylar membrane bursts at 22 kPa. The blast wave impacts the test animal inside a foam-lined restraint to reduce blunt impact trauma of the head against the metal tube. The left side of the head was closest the origin of the blast wave. Sham-injured animals were anesthetized in the same way and not subjected to the blast.
Barnes Maze. The Barnes maze test assesses spatial learning and memory. It was conducted on a gray circular surface 91 cm in diameter with 20 holes 5 cm in diameter around the perimeter raised to a height of 90 cm (Stoelting Co.). The surface was brightly lit and open in order to motivate the test animal to learn the location of a dark escape chamber recessed under one of the 20 holes. The maze was placed inside a black circular curtain with four different visual cues (with different shapes and colors) for orientation to the permanent location of the escape chamber. Four days of training comprised of four trials per day were conducted for each animal. […]

[3] = 3 and 30 mg/kg/d from 24 hours after injury
[4] = 3 and 30 mg/kg/d from 36 hours after injury
[5] = from 48 hours after injury, any dose
[6] = single enantiomers, 3 mg/kg/d IP

With `COc1cccc(NCC(F)Cn2c3ccc(Br)cc3c3cc(Br)ccc32)c1` (stereo not shown) [P7C3-A20, N-(3-(3,6-dibromo-9H-carbazol-9-yl)-2-fluoropropyl)-3-methoxyaniline] the “rescue of TH+ neurons” value ([1]; 21 d) was “around 75%”, the “dose showing significant neuroprotective activity” value [1] was 5 mg/kg/day and the “time in escape quadrant, probe test” value [2] was “restored the time spent in the escape quadrant to normal levels”.
In the case of `COc1cccc(NCC(F)Cn2c3ccc(Br)cc3c3cc(Br)ccc32)n1` (racemic) [P7C3-S243, N-(3-(3,6-dibromo-9H-carbazol-9-yl)-2-fluoropropyl)-6-methoxypyridin-2-amine], the “rescue of TH+ neurons” value ([1]; 21 d) is reported as “over 85%”, the “dose showing significant neuroprotective activity” value [1] is reported as 1 mg/kg/day and the “learning (percent latency to escape)” value ([2]; 0.3 mg/kg/day from 24 hours after injury) is reported as “learned significantly worse than sham-injury mice”. For the same molecule, the “learning (percent latency to escape)” value ([2]; 30 mg/kg/day from 48 hours after injury) was “restored normal learning”, the “learning (percent latency to escape)” value ([2]; 1, 3, 10 or 30 mg/kg/day from 24 hours after injury) was “learned the task as well as sham-injury mice” and the “percent quadrant time, probe test” value [2, 3] was “preserved a normal percent quadrant time”. The “percent target entry, probe test” value [2, 3] was “preserved a normal percent target entry”, the “percent quadrant time, probe test” value [2, 4] was “only the higher dose was significantly protective” and the “percent target entry, probe test” value [2, 4] was “only the higher dose was significantly protective”. The “learning (percent latency to escape)” value ([2]; 3 and 30 mg/kg/day from 36 hours after injury) was “improved learning”, the “percent target entry, probe test” value ([2]; IP 11 days, dose series, FIG. 22A) was “dose-dependently preserved performance” and the “percent quadrant time, probe test” value ([2]; IP 11 days, dose series, FIG. 23A) was “dose-dependently preserved performance”. The “memory in probe test” value ([2]; IP from 24 hours after injury, 0.3 mg/kg/day) was “did not preserve memory”, the “percent time in escape area, probe test” value ([2]; IP from 24 hours after injury, 1 mg/kg/day) was “partial, though not statistically significant, protection” and the “percent time in escape area, probe test” value ([2]; IP from 24 hours after injury, 3, 10 and 30 mg/kg/day) was “protected; also recorded: complete protection”. The “memory in probe test” value ([2]; IP from 36 hours after injury, 3 mg/kg/day) was “did not improve memory”, the “percent time in escape area, probe test” value ([2]; IP from 36 hours after injury, 30 mg/kg/d) was “partially efficacious” and the “percent time in escape area, probe test” value ([2]; IP from 48 hours after injury, any dose (3 or 30 mg/kg/d)) was “no protective efficacy”. For the same molecule, the “percent quadrant time, probe test” value [2, 5] was “no protective efficacy”, the “percent target entry, probe test” value [2, 5] was “no protective efficacy” and the “time in escape quadrant, probe test” value [2] was “restored the time spent in the escape quadrant to normal levels”.
With `COc1cccc(NCC(F)Cn2c3ccc(Br)cc3c3cc(Br)ccc32)n1` (single isomer, unassigned; (-)) [(−)-P7C3-S243, (−)-N-(3-(3,6-dibromo-9H-carbazol-9-yl)-2-fluoropropyl)-6-methoxypyridin-2-amine] the “neuroprotection by single enantiomers” value ([1]; 21 d, FIG. 3) was “strongly protective”, the “memory in probe test” value ([2]; oral from 24 hours after injury, 3, 10 and 30 mg/kg/day) was “preserved memory” and the “learning (percent latency to escape)” value ([2]; oral, 1 mg/kg/day) was “restored normal learning”. The “memory in probe test” value ([2]; oral, 1 mg/kg/day) was “did not preserve memory”, the “learning (percent latency to escape)” value ([2]; oral, 1, 3, 10 and 30 mg/kg/day) was “preserved of normal percent latency to escape” and the “percent quadrant time, probe test” value ([2]; oral, 3, 10 and 30 mg/kg/day) was “potent preservation”. The “percent target entry, probe test” value ([2]; oral, 3, 10 and 30 mg/kg/day) was “potent preservation”, the “percent quadrant time, probe test” value [2, 6] was “completely preserved normal performance” and the “percent target entry, probe test” value [2, 6] was “preserved normal performance”. The “learning (percent latency to escape)” value ([2]; single enantiomers, 3 mg/kg/day from 24 hours after injury) was “learned the task as well as sham-injury mice”, the “percent time in escape area, probe test” value ([2]; single enantiomers, IP from 24 hours after injury, 3 mg/kg/day) was “complete protection” and the “percent time in escape area, probe test” value ([2]; single enantiomers, IP from 24 hours after injury, 3 mg/kg/day, listed as A, 3 mg/kg/day) was “protective”. For the same molecule, the “time in escape quadrant, probe test” value [2] was “nonsignificant trend”.
